This test has as its system Plasmodium falciparum. The test is described as follows: GSK_TCMDC: Inhibition of Plasmodium falciparum 3D7 in whole erythrocytes, using parasite LDH activity as an index of growth. In kind it is functional, organism-based.

Regarding `COc1ccc(CN(C)CCCCc2ccc(NC(=O)COc3cccc4sc5ccccc5c(=O)c34)cc2)cc1OC`, the XC50 (Plasmodium falciparum, 3D7) came out at 0.809 µM.
On the same count and under the same terms, in the case of `CS(=O)(=O)c1ccc(-c2cnc(N)c(-c3cccc(O)c3)c2)cc1` it was 0.695 µM; in that of `Cc1sc2ccc(Cl)cc2c1S(=O)(=O)Nc1ccc2nccc(N3CC(C)NC(C)C3)c2c1` (centres undefined), 0.114 µM.
Compound `CCCN(c1ccc(C(F)(F)F)cc1[N+](=O)[O-])S(=O)(=O)C(c1ccccc1)c1ccc(C(F)(F)F)cc1[N+](=O)[O-]` (centres undefined) came in with an XC50 (Plasmodium falciparum, 3D7) of 1.22 µM.
On the same count and under the same terms, in the case of `CN1CCC(N2CCN(Cc3ccc(-c4ccc(-c5nc6ccccc6[nH]5)s4)cc3)CC2)CC1` it was 0.14 µM; in that of `CC(C)COc1ccc(Cl)cc1Cc1nc(-c2nc3ccc(CN(C)C)cc3[nH]2)co1`, 0.711 µM.
Consider `COc1ccc(NC(=O)[C@H](Cc2ccccc2)Nc2cc(C)nc(NCCOc3ccccc3)n2)cc1`, for which the XC50 (Plasmodium falciparum, 3D7) was determined as 1.07 µM.
As for `COc1ccc(C=CC(=O)NC2CCC(CN3CCC(c4c[nH]c5ccccc45)CC3)CC2)cc1OC` (centres undefined), the XC50 is 0.841 µM. The compound also registered an XC50 (Plasmodium falciparum, 3D7) of 0.801 µM.
For the setting “Plasmodium falciparum, 3D7”, `N=c1c2nc(-c3c(F)cccc3Cl)[nH]c(=O)c2[nH]c(=O)n1-c1ccccc1` registered an XC50 of 0.678 µM.
Same read-out and setting: in the case of `CC(C)c1cccc(C(NC(=O)[C@H]2Cc3ccccc3CN2C(=O)c2cccc(N3CCOCC3)c2)C2CCCC2)c1` (some centres undefined) it was 0.723 µM; in that of `Cc1ccc(NC(=O)NC2CCN(c3ccnc4cc(Cl)ccc34)CC2)cc1`, 0.315 µM.
Same read-out and setting: in the case of `Cc1ccc(/C=C/C(=O)NC2CCC(N3CCC(c4ccccc4C)CC3)CC2)cc1F` (centres undefined) it was 1.04 µM.
The same measure, in the same setting: then `O=C(CCc1c[nH]cn1)Nc1cccc(-c2ccc(-c3nc4cc(F)ccc4[nH]3)cc2)c1`, with 0.244 µM; and `O=C(/C=C/c1ccc(Cl)c(Cl)c1)NCc1ccc(CN2CCC(c3c[nH]c4ccccc34)CC2)cc1`, with 0.711 µM.
Turning to `CC(C)(CNCc1ccc(C(F)(F)F)cc1)c1nc(-c2ccc(Cl)c(O)c2)c(-c2ccncc2)[nH]1`, the XC50 (Plasmodium falciparum, 3D7) is 0.734 µM.
The same measure, in the same setting: in the case of `CC1(C)N=C(N)N=C(Nc2ccc(F)c(F)c2)N1` it was 0.0525 µM; in that of `Cc1cccc2nc(-c3cccc(-c4cccc(NC(=O)NCc5cccc(F)c5)c4)c3)[nH]c12`, 0.453 µM; in that of `CC(C)CCn1c(Sc2ccc(C#N)c([N+](=O)[O-])c2)nnc1-c1cccc(Cl)c1`, 0.673 µM.
`Cc1ccc(NC(=O)NC2CCN(c3ccnc4ccccc34)C2)cc1` (centres undefined): the XC50 (Plasmodium falciparum, 3D7) was determined as 0.709 µM.
The compound `N#Cc1ccc(NC(=O)Nc2ccc(OC(F)(F)F)cc2)cc1` had an XC50 (Plasmodium falciparum, 3D7) of 0.819 µM.
Same read-out and setting: then `COc1cc2nc(N3CCC(CNC(=O)c4cc5ccccc5s4)CC3)nc(N)c2cc1OC`, with 0.293 µM.
Compound `CCCCCn1c(Sc2ccc(C#N)c([N+](=O)[O-])c2)nnc1-c1cccs1` came in with an XC50 (Plasmodium falciparum, 3D7) of 0.777 µM.
The compound `COc1cc(CCNc2nc(NCc3cccc4ccccc34)nc(N3CCC(N)CC3)n2)ccc1O` displayed an XC50 (Plasmodium falciparum, 3D7) of 0.787 µM.
In turn, `COc1ccc(C2CC(c3cccs3)=NN2C(=O)CNc2cccc(C#N)c2)cc1OC` (centres undefined) had an XC50 (Plasmodium falciparum, 3D7) of 1.45 µM.
On the same count and under the same terms, in the case of `CC(=O)Nc1ccc(OCCN(Cc2ccccc2C(F)(F)F)c2ccc(C#N)c(C(F)(F)F)c2)c(Cl)c1` it was 0.619 µM; in that of `N=c1c2c(n(Cc3ccc(Cl)cc3Cl)c3c1CCC3)CCCC2`, 0.35 µM.
On the same count and under the same terms, in the case of `Nc1c(Cl)cc(C(O)CNCCCCCOCCc2ccc3ccccc3n2)cc1Cl` (centres undefined) it was 1.02 µM; in that of `Fc1ccc2[nH]c(-c3cccc(-c4cccc(CN5CCN(c6ccncc6)CC5)c4)c3)nc2c1`, 0.145 µM; in that of `COc1ccccc1NC(=O)Nc1ccc(-c2ccc(-c3nc4cc(C(F)(F)F)ccc4[nH]3)cc2)cc1`, 0.544 µM.
Compound `CCCNS(=O)(=O)c1ccc(NC(=O)C(C)Oc2ccc([N+](=O)[O-])cc2)cc1` (centres undefined) registered an XC50 (Plasmodium falciparum, 3D7) of 0.719 µM.
For the compound `Cc1cc(C)c(CON2C(=N)N=C(N)NC2(C)C)cc1C`, for the setting “Plasmodium falciparum, 3D7”, the XC50 came to 0.00363 µM.
Compound `CCN(CC)CCCN(CCCN(CC)CC)c1cc(C)nc(Nc2ccc(Cl)cc2)n1` showed an XC50 (Plasmodium falciparum, 3D7) of 0.211 µM.
Turning to `CCCC(C)Nc1nc(C)cc(NCCC(=O)Nc2ccc(OC)cc2)n1` (centres undefined), where the note is “Plasmodium falciparum, 3D7”, the XC50 was determined as 1.38 µM.

The values above are taken from ChEMBL document CHEMBL1157539, “Thousands of chemical starting points for antimalarial lead identification” (Nature, 2010).
